pIC50: −log10 of the molar value.

For experiment [1], the system named is T1, Hxt2.
T1 construct: full-length HXT2 expressed from ADH1 promoter on multicopy plasmid Hxt2mnx-pVT (pVT102-U) in S. cerevisiae EBY.S7 (all 18 hexose transporter genes deleted; HXT2m strain)
Put plainly: initial 2DG uptake ([…] s, zero-trans), bioluminescent 2DG6P assay in HXT2m cells. The experiment is classed as cell-based, Saccharomyces cerevisiae. Conditions: 1 mM 2DG, pH 7.4, 25 °C, 30 min preincubation, authors: nonspecific action via membrane lipid, not specific binding.

In experiment [2] the test system is T1, Hxt2. The experiment is described as above. The experiment is classed as cell-based, Saccharomyces cerevisiae. The conditions noted are these: no alcohol, 0–4 mM 2DG, pH 7.4, 25 °C, zero-trans influx.

In the case of `CCCCCCCCO` [C8, 1-octanol], the negative-log IC50 (pIC50) – broadly, the IC50 on a negative log10 scale, so that one unit is a factor of ten – in experiment [1] is 2.44.

On to `CCCCCCO` [C6, 1-hexanol], for which the pIC50 in experiment [1] (noncompetitive) was 1.82.

Turning to `OC[C@H]1OC(O)C[C@@H](O)[C@@H]1O` (stereo partly drawn) [2DG, 2-deoxyglucose], in experiment [2], the Michaelis constant (Km) – broadly, the concentration of substrate that gives half-maximal velocity – lay within 800 to 900 µM.

These data come from article doi:10.1101/2025.11.20.689647v1, “Alcohols inhibit glucose transporters noncompetitively at a constant membrane concentration according to lipid theory” (biorxiv, 2025).
